Assay results published in ChEMBL document CHEMBL1141256, “Panaxadiol glycosides that induce neuronal differentiation in neurosphere stem cells” (2007).
Active and inactive are the calls of the source. The calls are words filed in the database; no cut-off is given here.

What was measured:
[1] = Neurogenesis in GFAP+ mouse neural stem cells at 8 uM after 24 hrs relative to control
[2] = Neurogenesis in TOPRO+ mouse neural stem cells at 8 uM after 24 hrs relative to control
[3] = Neurogenesis in TUJ+MAP2+ mouse neural stem cells at 8 uM for 24 hrs relative to control
Neural stem cell [4] = experiment: Decrease in number of neurons in TUJ/MAP2+ mouse neural stem cells at 15 uM
Neural stem cell [5] = experiment: Neurogenesis of TUJ/MAP2+ mouse neural stem cells at 8 uM afte 12, 24, 48 hrs
Neural stem cell [6] = experiment: Decrease in number of neurons in TUJ/MAP2+ mouse neural stem cells at 8 uM after 72 hrs
Neural stem cell [7] = experiment: Inhibition of calcium induced neurogenesis in mouse neural stem cells in presence of 10 uM nifedipine
Neural stem cell [8] = experiment: Neuronal differentiation in TUJ/MAP2+ EGF responsive mouse neural stem cells at 1 to 8 uM after 72 hrs
Neural stem cell [9] = experiment: Increase in calcium concentration in mouse neural stem cells at 5 uM assessed as […] ratio F350/F380; settings: TDE = time-dependent effect
[10] = Neurogenesis of TUJ/MAP2+ mouse neural stem cells at 8 uM assessed as calcium influx relative to control
[11] = Neurogenesis of TUJ/MAP2+ mouse neural stem cells at 8 uM in presence of 5 uM nifedipine assessed as calcium influx relative to control
[12] = Neurogenesis in GFAP+ mouse neural stem cells at 1 uM relative to control
[13] = Neurogenesis in TOPRO+ mouse neural stem cells at 1 uM relative to control
[14] = Neurogenesis in TUJ+MAP2+ mouse neural stem cells at 1 uM relative to control

SMILES: CC(C)=CCC[C@](C)(O)[C@H]1CC[C@]2(C)[C@@H]1[C@H](O)C[C@@H]1[C@@]3(C)CC[C@H](O[C@@H]4O[C@H](CO)[C@@H](O)[C@H](O)[C@H]4O[C@@H]4O[C@H](CO)[C@@H](O)[C@H](O)[C@H]4O)C(C)(C)[C@@H]3CC[C@]12C
- Activity [1]: 35.9%
- Activity [2]: 140%
- Activity [3]: 16.1%

SMILES: CC(C)=CC/C=C(\C)[C@H]1CC[C@]2(C)[C@@H]1[C@H](O)C[C@@H]1[C@@]3(C)CC[C@H](O[C@@H]4O[C@H](CO)[C@@H](O)[C@H](O)[C@H]4O[C@@H]4O[C@H](CO)[C@@H](O)[C@H](O)[C@H]4O)C(C)(C)[C@@H]3CC[C@]12C [GINSENOSIDE RG5]
- Activity (Neural stem cell [4]): Active
- Activity (Neural stem cell [5]): Active
- Activity [1]: 25.2%
- Activity [2]: 132%
- Activity (Neural stem cell [6]): Active
- Activity [3]: 30.5%
- Activity (Neural stem cell [7]): Active
- Activity (Neural stem cell [8]): Active
- Activity (Neural stem cell [9]): tde
- Activity [10]: 29.6%
- Activity [11]: 4%

SMILES: C=C(CCC=C(C)C)[C@H]1CC[C@]2(C)[C@@H]1[C@H](O)C[C@@H]1[C@@]3(C)CC[C@H](O[C@@H]4O[C@H](CO)[C@@H](O)[C@H](O)[C@H]4O[C@@H]4O[C@H](CO)[C@@H](O)[C@H](O)[C@H]4O)C(C)(C)[C@@H]3CC[C@]12C [GISENOSIDE RK1]
- Activity [1]: 28.8%
- Activity [2]: 107%
- Activity [3]: 28.4%

SMILES: CC1=C(/C=C/C(C)=C/C=C/C(C)=C/C(=O)O)C(C)(C)CCC1 [TRETINOIN]
- Activity [12]: 36.3%
- Activity [13]: 148%
- Activity [14]: 16.5%
